In publication PMC10689823, “Discovery of a Drug-like, Natural Product-Inspired DCAF11 Ligand Chemotype” (Nature Communications, 2023):

Target: BRD2 (Homo sapiens, UniProt P25440)
Assay: BRD2 levels by Western blot in KBM7 cells (WT, DCAF11 knockout, DDB1 knockout)
Type: cell-based
Design: endogenous in cells; host or cells: KBM7 (WT, DCAF11 KO, DDB1 KO)
Conditions: for BRD2 degradation after knockout of DDB1 in KBM7 cells: 0.5 µg/mL Dox for 3 days, then compound 4 h; for BRD2 degradation in DCAF11 knockout (KO1 and KO2) KBM7 cells: 9 at 3 μM, 10 at 10 μM, 11 at 10 μM, 6 h; for BRD2 degradation in KBM7 cells: 4 h
Protocol: Cells were washed with PBS and lysed in lysis buffer (50 mM Tris-HCl, pH 7.4, 150 mM NaCl, 1% Triton X-100, 1% sodium deoxycholate, 0.1% SDS) with complete protease inhibitor cocktail (Roche, 11836170001) for 30 min on ice. For Ramos cells, cell pellets were lysed in lysis buffer (50 mM Tris-HCl, pH 8, 150 mM NaCl, 1% NP-40, 0.5% sodium deoxycholate) with complete protease inhibitor cocktail. After centrifugation at 16,000 x g, the supernatant was transferred into a new tube and the protein concentration was determined by DC protein assay (BIO-RAD, 5000116). Proteins were separated by SDS-PAGE and transferred to a PVDF membrane (Thermo scientific, 0.45 μm, 88518). For PDEδ, BRD2, GAPDH, BRD4, Vinculin and BTK, the membranes were blocked with Intercept® Blocking Buffer (LI-COR Biosciences, 927-70001) at room temperature for 1 h. The primary antibodies for these proteins were diluted with Intercept® Blocking Buffer (1:500 for PDEδ, 1:3000 for Vinculin, and 1:1000 for other proteins) and incubated with the membranes overnight at 4 °C. Membranes were washed with PBS + 0.1% Tween 20 (PBS-T) five times and incubated with secondary antibodies conjugated to IRDye® Infrared Fluorescent Dyes (1:5000, LI-COR Biosciences) at room temperature for 1 h with protection from light. After washing the membrane, signals were visualized using the ChemiDoc MP Imaging System (BIO-RAD Laboratories). For detection of LC3B, BRD3, BLK, DCAF11, DDB1 RBX1, FIP200, V5- and FLAG-Tag the membranes were blocked with 5% milk in PBS-T at room temperature for 1 h. The primary antibodies for these proteins were diluted in 5% milk in PBS-T buffer (1:200 for BRD3, 1:1000 for other proteins) and incubated with the membranes overnight at 4 °C. Membranes were washed with PBS-T five times and incubated with HRP secondary antibodies (1:1500) at room temperature for 1 h. After washing the membrane, protein detection was performed using Western blotting detection reagent (Thermo Scientific, 34095) and the ChemiDoc MP Imaging System (BIO-RAD). Relative band intensities were quantified using Image Lab (BIO-RAD).
DCAF11- or FIP200 (RB1CC1)-targeting sgRNAs were lentivirally packaged using PEI transfection of Lenti-X cells. The viral supernatant was harvested after 72 h, cleared of cellular debris by filtration through a 0.45-µm PES filter and stored in aliquots at −80 °C. The appropriate amount of viral supernatant was transduced into KBM7 cells (1 × 10^6 cells/mL) via spinfection (2000 rpm, 1 h, 37 °C) with polybrene (8 µg/mL). Two days post transduction, the cells were selected with puromycin (1 µg/mL) for a total of 5 days, after which the knockout pools were validated via western blotting.

Sequence of BRD2 (P25440 whole entry): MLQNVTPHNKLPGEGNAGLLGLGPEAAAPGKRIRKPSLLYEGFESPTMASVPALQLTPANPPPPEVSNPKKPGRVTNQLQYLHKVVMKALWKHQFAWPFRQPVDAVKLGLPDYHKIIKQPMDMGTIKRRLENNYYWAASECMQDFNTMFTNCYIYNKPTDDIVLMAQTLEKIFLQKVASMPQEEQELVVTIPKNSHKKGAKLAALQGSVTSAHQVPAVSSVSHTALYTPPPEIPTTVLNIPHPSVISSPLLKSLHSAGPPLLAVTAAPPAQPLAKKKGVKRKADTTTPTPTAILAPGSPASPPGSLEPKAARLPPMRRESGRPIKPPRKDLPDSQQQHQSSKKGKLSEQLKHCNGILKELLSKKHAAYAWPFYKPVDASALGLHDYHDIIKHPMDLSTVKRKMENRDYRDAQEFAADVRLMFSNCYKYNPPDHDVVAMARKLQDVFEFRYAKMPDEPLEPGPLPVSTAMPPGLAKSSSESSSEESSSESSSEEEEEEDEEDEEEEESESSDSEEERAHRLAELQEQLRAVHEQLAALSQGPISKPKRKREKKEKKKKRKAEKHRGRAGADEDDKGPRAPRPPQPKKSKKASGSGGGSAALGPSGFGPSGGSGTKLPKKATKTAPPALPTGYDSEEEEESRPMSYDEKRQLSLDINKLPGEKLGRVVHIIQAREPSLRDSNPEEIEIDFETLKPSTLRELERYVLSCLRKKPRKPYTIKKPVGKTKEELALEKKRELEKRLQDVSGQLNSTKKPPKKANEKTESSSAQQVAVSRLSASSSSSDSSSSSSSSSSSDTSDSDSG

Compound | BRD2 degradation after knockout of DDB1 in KBM7 cells | BRD2 degradation in DCAF11 knockout (KO1 and KO2) KBM7 cells | BRD2 degradation in KBM7 cells
Cc1sc2c(c1C)C(c1ccc(Cl)cc1)=N[C@@H](CC(=O)NCCOCCOCCOCCOCCNC(=O)COc1c(Br)cc(/C=C3\C(=O)Nc4ccc(Br)cc43)cc1Br)c1nnc(C)n1-2 [Compound 9] | did not lead to BRD2 degradation anymore | abolished | displayed BRD2-degrading activity
Cc1sc2c(c1C)C(c1ccc(Cl)cc1)=NC(CC(=O)NCCOCCOCCOCCOc1c(Br)cc(C=C3C(=O)Nc4ccc(Br)cc43)cc1Br)c1nnc(C)n1-2 (stereo not drawn) [Compound 10] | did not lead to BRD2 degradation anymore | abolished | displayed BRD2-degrading activity
